# Measurements reported in patent publication EP1377579B1 (Aventis Pharmaceuticals Inc., priority 2000, dated 2002).
# Where a name gives a salt, the structure may show the parent alone. Read-outs that look alike come from different tables or passages of the source.
# Columns and labels:
# [1] = target: cdk4/cyclin D1 (Homo sapiens, UniProt P11802); assay: Cyclin-dependent kinase assay, cdk4/cyclin D1; assay type: biochemical; conditions: cyclin D1/cdk4; GST-pRb substrate, 10 µM ATP
# [2] = tested on: Colo-205; assay: In vitro proliferation assay (MTT), Colo-205; assay type: cell-based; conditions: Homo sapiens
# Method: (§1) The proliferation of tumor cells can be measured using a tetrazolium salt-based assay known as the MTT (3-[4,5-Dimethylthiazol-2-yl]-2,5-diphenyltetrazolium bromide) assay. The proliferation test is performed essentially as described by Carmichael et al., Cancer Res. 47: 936-942, 1987. For the assay, the cell lines are plated onto 96 well plates at 1000 to 2500 cells/well (depending on the properties of the individual cell lines), left to attach and recover overnight. […] After 3 days, the cells are incubated with MTT dye (3-[4,5-Dimethylthiazol-2-yl]-2,5-diphenyltetrazolium bromide, Sigma # M5655, 10 mg/ml in Hank's Buffered Saline) to estimate the amount of live cells remaining vs. concentration for the test compounds. Specifically, MTT solution is added to a final concentration of […] and the plates incubated at 37 C for 2 to 4 hr. The MTT and culture medium is then removed from the cultures and 200 µl of DMSO is added to solubilize the dye from the cell layer. The absorbance at 570 nm is determined for each culture using a Spectramax plate reader (Molecular Devices).
# (§2) IC50s were determined from the raw data from either the MTT or SRB assays.
# [3] = tested on: NCI-H460; assay: In vitro proliferation assay (MTT), NCI-H460; assay type: cell-based; conditions: Homo sapiens
# Method: as §1, §2
# (§3) All of the cell lines were obtained from American Type Tissue Collection, with the ATCC accession number in parentheticals. MCF-7 and MDA-MB-231 cells were grown in improved minimum essential medium (Biofluids) without phenol red, supplemented with 5 % fetal bovine serum, 0.01 mg/ml gentamicin and 3 mM L-glutamine. All of the other cell lines were grown in RPMI 1640 medium (Life Technologies) supplemented with 5 % fetal bovine serum, 0.01 mg/ml gentamicin and 3 mM L-glutamine TABLE 3
# [4] = tested on: Jurkat; assay: In vitro proliferation assay (MTT), Jurkat; assay type: cell-based; conditions: Homo sapiens, read-out: Jurkat Leuk. (IC50 µM)
# Method: as §1, §2, §3
# [5] = target: cdk2/cyclin E (Homo sapiens, UniProt P24941); assay: Cyclin-dependent kinase assay, cdk2/cyclin E; conditions: CDK2 IC50, nM, GST-pRb substrate, 10 µM ATP
# Method: The insect cell (Sf9) expression is optimized for each of the CDK/cyclin pairs according to the manufacturer's protocols (Life Technologies).
# (§5) The viruses are added to the cells and the culture is incubated at 27°C for the desired time. The cells are harvested by centrifugation at 3000 rpm for 10 minutes. The cells are snap frozen on dry ice and stored at - 80°C.
# (§6) Cell extracts are made following a standard procedure. The cell pellet is resuspended in lysis buffer (50 mM HEPES, pH 8.0, 10 mM MgCl2, 1 mM DTT, 2.5 mM EGTA, 1 mM EDTA, 10 mM β-glycerophosphate, 1 mM sodium vanadate, 1 mM sodium fluoride, 1 x Protease inhibitor cocktail). The cells are lysed using the microfluidizer (Microfluidics) for 20 minutes. Cell debris is removed by centrifugation at 100,000 x g. The cell extracts are aliquoted in 1 ml aliquots, frozen on dry ice, and stored at -80°C.
# The kinase reactions are performed following a standard procedure. The enzyme and inhibitor are diluted in kinase buffer (50 mM HEPES, pH 8.0, 10 mM MgCl2, 2.5 mM EGTA, 10 mM β-glycerophosphate, 1 mM sodium vanadate, 1 mM sodium fluoride, and 1 mM DTT) and pre-incubated for 30 minutes. The cdk2 and cdk4 enzyme activities are assayed using 500 ng of the GST-pRb substrate (see description below) in the presence of 10 µM cold ATP and 1 µCi of [γ-^33P] ATP for 30 minutes at room temperature. […] The reactions are terminated by the addition of 50 µL of 10 mM cold ATP to stop the reactions. The reactions are transferred to a pre-soaked 96-well multi-screen plate containing 30 µL of 100% TCA per well. After incubation for one hour at room temperature, the plates are washed twice with 200 µl of 20% TCA, followed by 200 µl of 10% TCA and finally with 200 µl of 5% TCA. After drying the plates at room temperature, the filter plates are placed in adapter plates (Packard) and 40 µl of Microscint-O® (Packard) is added to each well.
# [6] = target: cdk1/cyclin B (Homo sapiens, UniProt P06493); assay: Cyclin-dependent kinase assay, cdk1/cyclin B; conditions: CDK1 IC50, nM, Histone H1, 10 µM ATP
# Method: The IC50 values for cdk1/cyclin B, cdk2/cyclin E, and cdk4/cyclin D1 inhibition are determined using the following methods: • The cdk1 sequence (accession number Y00272) is amplified by PCR and cloned into the BamHI and SalI sites of pFASTBAC1 (Life Technologies).
# The cyclin B1 sequence (accession number M25753) is amplified by PCR and cloned into the BamHI and SalI sites of pFASTBAC1 (Life Technologies).
# The insect cell (Sf9) expression is optimized for each of the CDK/cyclin pairs according to the manufacturer's protocols (Life Technologies). For cdk4-HA/cyclin D1-His6 an infection of 0.1 multiplicity of infection (MOI) for 48 hours gives the best expression levels of the complex as well as activity.
# as §5, §6
# The kinase reactions are performed following a standard procedure. The enzyme and inhibitor are diluted in kinase buffer (50 mM HEPES, pH 8.0, 10 mM MgCl2, 2.5 mM EGTA, 10 mM β-glycerophosphate, 1 mM sodium vanadate, 1 mM sodium fluoride, and 1 mM DTT) and pre-incubated for 30 minutes. […] The cdk1 enzyme activity is assayed using Histone H1 (Sigma) in the presence of 10 µM ATP for 30 min at room temperature. The reactions are terminated by the addition of 50 µL of 10 mM cold ATP to stop the reactions. The reactions are transferred to a pre-soaked 96-well multi-screen plate containing 30 µL of 100% TCA per well. After incubation for one hour at room temperature, the plates are washed twice with 200 µl of 20% TCA, followed by 200 µl of 10% TCA and finally with 200 µl of 5% TCA. After drying the plates at room temperature, the filter plates are placed in adapter plates (Packard) and 40 µl of Microscint-O® (Packard) is added to each well. Top Seal A film is used to cover the plates before counting in a Top Count Scintillation Counter.
# The % remained activity of the indicated Cdk/cyclin kinase complex in the presence of inhibitor is calculated by the ratio of cpm in the presence of inhibitor to cpm in the absence of inhibitor (%Activity = vi/vo x 100%).
# [7] = tested on: PC-3; assay: In vitro proliferation assay (MTT), PC-3; assay type: cell-based, human
# In short: (§4)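 Following 3 days of compound treatment, MTT was added and the dye dissolved in DMSO for 570 nm absorbance; IC50s derived from these raw readings. Seeding density 1000 to 2500 cells/well depending on line, with overnight recovery before dosing.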
# [8] = tested on: HL-60; assay: In vitro proliferation assay (MTT), HL-60; assay type: cell-based; conditions: Homo sapiens
# Method: as §1, §2, §3
# [9] = tested on: MDA-MB-435; assay: In vitro proliferation assay (MTT), MDA-MB-435; assay type: cell-based, human
# In short: as §4
# [10] = COLO 205, MTT assay, value (SD, n) where given, read-out: Colo-205 Colon (IC50 µM)
# [11] = NCI-H460, MTT assay, value (SD, n) where given, read-out: H-460 Lung (IC50 µM)
# [12] = MTT assay, value (SD, n) where given
# [13] = Homo sapiens, PC-3, MTT assay, value (SD, n) where given, read-out: PC-3 Prostate (IC50 µM)
# [14] = HL-60, MTT assay, value (SD, n) where given, read-out: HL-60 Leuk. (IC50 µM)
# [15] = Homo sapiens, MDA-MB-435, MTT assay, value (SD, n) where given, read-out: MB-435 Breast (IC50 µM)
# cdk1/cyclin B, sequence (P06493 whole entry): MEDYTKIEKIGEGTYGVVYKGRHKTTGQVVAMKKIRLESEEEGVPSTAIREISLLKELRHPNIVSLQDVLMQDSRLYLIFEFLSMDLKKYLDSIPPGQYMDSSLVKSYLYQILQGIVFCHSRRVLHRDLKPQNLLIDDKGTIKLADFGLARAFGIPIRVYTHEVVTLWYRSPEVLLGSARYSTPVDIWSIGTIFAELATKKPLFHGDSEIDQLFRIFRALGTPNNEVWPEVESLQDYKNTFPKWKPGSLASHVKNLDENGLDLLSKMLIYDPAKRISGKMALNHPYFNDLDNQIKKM
# cdk1/cyclin B, sequence (P14635 whole entry partner): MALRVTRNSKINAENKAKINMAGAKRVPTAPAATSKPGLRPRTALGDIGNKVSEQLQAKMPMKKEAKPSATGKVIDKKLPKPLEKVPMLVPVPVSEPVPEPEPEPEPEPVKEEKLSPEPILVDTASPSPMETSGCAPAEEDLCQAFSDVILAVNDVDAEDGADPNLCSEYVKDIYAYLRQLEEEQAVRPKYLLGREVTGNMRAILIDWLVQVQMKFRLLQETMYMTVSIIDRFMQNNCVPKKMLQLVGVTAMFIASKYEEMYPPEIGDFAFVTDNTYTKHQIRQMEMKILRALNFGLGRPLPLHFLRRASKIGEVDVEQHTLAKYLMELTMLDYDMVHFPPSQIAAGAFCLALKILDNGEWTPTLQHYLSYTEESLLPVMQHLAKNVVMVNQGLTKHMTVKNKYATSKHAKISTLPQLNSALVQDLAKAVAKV
# cdk4/cyclin D1, sequence (P11802 whole entry): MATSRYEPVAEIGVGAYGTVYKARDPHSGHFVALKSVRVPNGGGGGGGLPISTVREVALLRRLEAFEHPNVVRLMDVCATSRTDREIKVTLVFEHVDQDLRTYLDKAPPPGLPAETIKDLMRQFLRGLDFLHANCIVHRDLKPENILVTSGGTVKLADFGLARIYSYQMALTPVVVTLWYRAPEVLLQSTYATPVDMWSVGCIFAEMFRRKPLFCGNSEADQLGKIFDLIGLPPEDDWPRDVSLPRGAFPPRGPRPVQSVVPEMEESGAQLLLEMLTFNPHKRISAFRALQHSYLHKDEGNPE
# cdk4/cyclin D1, sequence (P24385 whole entry partner): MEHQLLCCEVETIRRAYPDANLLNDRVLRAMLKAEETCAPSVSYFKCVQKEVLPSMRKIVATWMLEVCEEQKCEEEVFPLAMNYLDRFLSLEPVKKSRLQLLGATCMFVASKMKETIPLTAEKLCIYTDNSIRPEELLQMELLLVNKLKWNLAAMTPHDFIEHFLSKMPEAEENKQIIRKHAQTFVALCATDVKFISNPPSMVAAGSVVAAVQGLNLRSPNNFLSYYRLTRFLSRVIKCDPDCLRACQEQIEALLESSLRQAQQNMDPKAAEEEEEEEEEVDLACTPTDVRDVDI
Structure (SMILES),IC50 [1],"IC50 [2, 10]","IC50 [3, 11]","IC50 [4, 12]",IC50 [5],IC50 [6],"IC50 [7, 13]","IC50 [8, 14]","IC50 [9, 15]","IC50 ([2]; COLO 205, read-out: Colo-205 Colon (IC50 µM))","IC50 ([3]; NCI-H460, read-out: H-460 Lung (IC50 µM))",IC50 [4],"IC50 ([7]; Homo sapiens, PC-3, read-out: PC-3 Prostate (IC50 µM))","IC50 ([8]; HL-60, read-out: HL-60 Leuk. (IC50 µM))","IC50 ([9]; Homo sapiens, MDA-MB-435, read-out: MB-435 Breast (IC50 µM))","IC50 ([7]; MTT assay, value (SD, n) where given, dihydrochloride, read-out: PC-3 Prostate (IC50 µM))","IC50 ([9]; MTT assay, value (SD, n) where given, dihydrochloride, read-out: MB-435 Breast (IC50 µM))"
"C#CCOC(=O)N1CCC(Nc2nc(N[C@H]3CC[C@H](N)CC3)nc3c2ncn3C2CCCC2)CC1 [compound 102, trans-4-[2-(4-Amino-cyclohexylamino)-9-cyclopentyl-9H-purin-6-ylamino]-piperidine-1-carboxylic acid prop-2-ynyl ester dihydrochloride]",926 nM,0.14 µM,0.2 µM,0.11 µM,42 nM,31 nM,0.14 µM,< 0.02 µM,0.19 µM,–,–,–,–,–,–,–,–
"N[C@H]1CC[C@H](Nc2nc(NC3CCN(C(=O)Oc4ccccc4[N+](=O)[O-])CC3)c3ncn(C4CCCC4)c3n2)CC1 [compound 99, trans-4-[2-(4-Amino-cyclohexylamino)-9-cyclopentyl-9H-purin-6-ylamino]-piperidine-1-carboxylic acid 2-nitro-phenyl ester dihydrochloride]",1520 nM,–,–,–,9 nM,33 nM,–,–,–,0.05 µM,0.16 µM,0.11 µM,0.2 µM,< 0.02 µM,0.12 µM,–,–
"N[C@H]1CC[C@H](Nc2nc(NC3CCN(C(=O)OCc4ccc([N+](=O)[O-])cc4)CC3)c3ncn(C4CCCC4)c3n2)CC1 [compound 94, trans-4-[2-(4-Amino-cyclohexylamino)-9-cyclopentyl-9H-purin-6-ylamino]-piperidine-1-carboxylic acid 4-nitro-benzyl ester dihydrochloride]",827 nM,0.07 µM,0.14 µM,0.18 µM,69 nM,27 nM,0.13 µM,0.06 µM,0.14 µM,–,–,–,–,–,–,–,–
"CCCCOC(=O)N1CCC(Nc2nc(N[C@H]3CC[C@H](N)CC3)nc3c2ncn3C2CCCC2)CC1 [compound 92, trans-4-[2-(4-Amino-cyclohexylamino)-9-cyclopentyl-9H-purin-6-ylamino]-piperidine-1-carboxylic acid butyl ester dihydrochloride]",2100 nM,0.2 µM,0.2 µM,0.25 µM,18 nM,45 nM,0.2 µM,0.07 µM,0.33 µM,–,–,–,–,–,–,–,–
"COC(=O)c1ccccc1NC(=O)N1CCC(Nc2nc(N[C@H]3CC[C@H](N)CC3)nc3c2ncn3C2CCCC2)CC1 [compound 193, trans-2-[(1-{4-[2-(4-Amino-cyclohexylamino)-9-cyclopentyl-9H-purin-6-ylamino]-piperidin-1-yl}-methanoyl)-amino]-benzoic acid methyl ester dihydrochloride]",507 nM,0.18 µM,0.13 µM,0.26 µM,8 nM,26 nM,0.18 µM,0.03 µM,0.17 µM,–,–,–,–,–,–,–,–
"CC(C)c1ccc(NC(=O)N2CCC(Nc3nc(N[C@H]4CC[C@H](N)CC4)nc4c3ncn4C3CCCC3)CC2)cc1 [compound 190, trans-4-[2-(4-Amino-cyclohexylamino)-9-cyclopentyl-9H-purin-6-ylamino]-piperidine-1-carboxylic acid (4-isopropyl-phenyl)-amide dihydrochloride]",357 nM,0.02 µM,0.36 µM,0.2 µM,40 nM,23 nM,0.2 µM,< 0.02 µM,0.09 µM,–,–,–,–,–,–,–,–
"C=CCCOC(=O)N1CCC(Nc2nc(N[C@H]3CC[C@H](N)CC3)nc3c2ncn3C2CCCC2)CC1 [compound 100, trans-4-[2-(4-Amino-cyclohexylamino)-9-cyclopentyl-9H-purin-6-ylamino]-piperidine-1-carboxylic acid but-3-enyl ester dihydrochloride]",–,0.11 µM,0.17 µM,0.19 µM,50 nM,60 nM,0.22 µM,0.05 µM,0.25 µM,–,–,–,–,–,–,–,–
"N[C@H]1CC[C@H](Nc2nc(NC3CCN(S(=O)(=O)c4ccc([N+](=O)[O-])cc4)CC3)c3ncn(C4CCCC4)c3n2)CC1 [compound 120, trans-N^2-(4-Amino-cyclohexyl)-9-cyclopentyl-N^6-[1-(4-nitro-benzenesulfonyl)-piperidin-4-yl]-9H-purine-2,6-diamine dihydrochloride]",–,0.1 µM,0.27 µM,0.19 µM,–,–,0.22 µM,< 0.02 µM,0.2 µM,–,–,–,–,–,–,–,–
"N[C@H]1CC[C@H](Nc2nc(NC3CCN(C(=O)Nc4ccccc4Br)CC3)c3ncn(C4CCCC4)c3n2)CC1 [compound 168, trans-4-[2-(4-Amino-cyclohexylamino)-9-cyclopentyl-9H-purin-6-ylamino]-piperidine-1-carboxylic acid (2-bromo-phenyl)-amide dihydrochloride]",111 nM,0.16 µM,0.19 µM,–,52 nM,29 nM,0.19 µM,0.04 µM,0.15 µM,–,–,–,–,–,–,–,–
"N[C@H]1CC[C@H](Nc2nc(NC3CCN(S(=O)(=O)c4cc(Cl)cc(Cl)c4O)CC3)c3ncn(C4CCCC4)c3n2)CC1 [compound 117, trans-2-{4-[2-(4-Amino-cyclohexylamino)-9-cyclopentyl-9H-purin-6-ylamino]-piperidine-1-sulfonyl}-4,6-dichloro-phenol dihydrochloride]",558 nM,–,–,43.6 µM,31 nM,290 nM,34.1 µM,24.2 µM,39 µM,–,–,–,–,–,–,–,–
"N[C@H]1CC[C@H](Nc2nc(NC3CCN(C(=O)Nc4ccc(F)cc4F)CC3)c3ncn(C4CCCC4)c3n2)CC1 [compound 166, trans-4-[2-(4-Amino-cyclohexylamino)-9-cyclopentyl-9H-purin-6-ylamino]-piperidine-1-carboxylic acid (2,4-difluoro-phenyl)-amide dihydrochloride]",–,0.02 µM,0.08 µM,0.07 µM,–,–,0.06 µM,0.01 µM,0.03 µM,–,–,–,–,–,–,–,–
"COc1ccccc1C(=O)N1CCC(Nc2nc(N[C@H]3CC[C@H](N)CC3)nc3c2ncn3C2CCCC2)CC1 [compound 7, trans-1-{4-[2-(4-Amino-cyclohexylamino)-9-cyclopentyl-9H-purin-6-ylamino]-piperidin-1-yl}-1-(2-methoxy-phenyl)-methanone dihydrochloride]",96 nM,< 0.02 µM,1.11 µM,–,487 nM,399 nM,2.26 µM,–,1.34 µM,–,–,–,–,–,–,–,–
"N[C@H]1CC[C@H](Nc2nc(NC3CCN(C(=O)c4cccc(Cl)c4)CC3)c3ncn(C4CCCC4)c3n2)CC1 [compound 6, trans-1-{4-[2-(4-Amino-cyclohexylamino)-9-cyclopentyl-9H-purin-6-ylamino]-piperidin-1-yl}-1-(3-chloro-phenyl)-methanone dihydrochloride]",87 nM,< 0.02 µM,0.24 µM,–,201 nM,160 nM,–,–,–,–,–,–,–,–,–,1.2 µM,0.44 µM
